Values of other authors, collected in patent US20070122458A1, “Nicotine and Chocolate Compositions” (priority 2001, published 2007).

Assays:
[1] = intravenous infusion; smokers and non-smokers similarly
[2] = nasal solution insufflation; smokers and non-smokers; not "sweets"
[3] = smoker, cigarette smoking

For `CN1CCCC1c1cccnc1` (stereo not drawn) [nicotine], the “increase of the resting metabolic rate” value [1] is given as 6.5%, the “perceived taste intensity of dietary "fat"” value [2] is given as “significantly reduced” and the “time to peak blood levels of nicotine after starting smoking” value [3] is given as 5 to 10 min.
